Laboratory results taken from patent US20090018019A1, “INCREASING PATHOGEN DEFENCE IN PLANTS” (priority 2005, published 2009).

Legend:
Test in all cases: DNA chip expression analysis of barley leaves after soil treatment
Format in all cases: in vivo
Settings in all cases: 10 mg per plant to soil
[1] = system: Contig2211_at PATHOGENESIS-RELATED PROTEIN PRECURSOR
Description: (§1) Barley seeds (of the Baroness variety) were sown in pots containing soil about 2 cm deep (1250 g of sandy loam/per pot; the soil moisture content was adjusted to 70% of the maximum water-holding capacity) and cultivated in a climatized chamber under specified light, moisture and temperature conditions (15 h white light, 70% atmospheric humidity, 23-19° C. day/night).
(§2) 14 days after the emergence of the barley plants 10 mg of imidacloprid per plant, dissolved in 100 ml water, were applied by means of a pipette to the soil around the base of the shoot. The same volume of water without any active compound was applied to the control pots. After the soil treatment the plants were no longer watered. At various times after application (0.25; 1; 6; 8; 11; 13; 15; 16 and 17 days) the leaves were harvested, quick-frozen in liquid nitrogen and stored at −80° C. until further treatment.
(§3) The labelled RNA probes for the DNA chip hybridization were produced according to the protocols (Expression Analysis, Technical Manual) of the Affymetrix company (Affymetrix Inc., 3380 Central Expressway, Santa Clara, Calif., USA). Whole RNA was first of all isolated from in each case 500 mg of the harvested leaves. 10 μg portions of whole RNA were used for the first and second strand cDNA synthesis. The cDNA was amplified with T7 polymerase and simultaneously labelled with biotin-UTP. 20 μg portions of this biotinylated cDNA were used for the hybridization of the barley genome array (Barleyl Gene Chip, Item no: 511012) from Affymetrix. This DNA microarray contains DNA sequences of 22840 genes composed of a total of 400000 EST (Expressed Sequence Tag) sequences. Then the DNA microarrays were washed in the Affymetrix Fluidics Station, stained with streptavidin/phycoerythrin (Molecular Probes, P/N S-866) and scanned with the Affymetrix Gene Chip Scanner 3000. The fluorescence data obtained were analyzed with the Microarray Suite 5 software from Affymetrix and the Expressionist Pro software from the GeneData company. After a quality check, all of the DNA chip analyses were stored in a database. Since the Affymetrix Gene Chip System is based on measuring the absolute expression values of the genes contained in the chip, the expression values of the biological replicates of treated and non-treated plants were averaged after normalization (median calculation). With the aid of the statistical ANOVA method, those genes were identified whose expression was increased in the plants treated with imidacloprid but remained relatively constant in the untreated controls. The assembly of gene groups from specific metabolic pathways, signal transduction chains or functions was carried out by a keyword search through the gene annotations supplied by Affymetrix and by linking the genes to their corresponding Gene Ontology Annotations (Gene Ontology Consortium).

[2] = system: Contig2550_x_at PATHOGENESIS-RELATED PROTEIN 4
Description: as §1, §2, §3

[3] = system: Contig2209_at PATHOGENESIS RELATED PROTEIN (HV-1A)
Description: as §1, §2, §3

[4] = system: Contig2788_x_at THAUMATIN-LIKE PROTEIN TLP7
Description: as §1, §2, §3

## O=[N+]([O-])/N=C1\NCCN1Cc1ccc(Cl)nc1 [imidacloprid]
[1]; 0.25 d
  Induction factor = Expression (treated)/Expression (untreated): 1.0
[1]; 0.25 days
  Median of the raw expression data, treated: 223.31
[1]; 1 d
  Induction factor = Expression (treated)/Expression (untreated): 1.0
[1]; 1 day
  Median of the raw expression data, treated: 206.49
[1]; 6 d
  Induction factor = Expression (treated)/Expression (untreated): 3.1
[1]; 6 days
  Median of the raw expression data, treated: 824.50
[1]; 8 d
  Induction factor = Expression (treated)/Expression (untreated): 3.7
[1]; 8 days
  Median of the raw expression data, treated: 928.65
[1]; 11 d
  Induction factor = Expression (treated)/Expression (untreated): 3.0
[1]; 11 days
  Median of the raw expression data, treated: 868.02
[1]; 13 d
  Induction factor = Expression (treated)/Expression (untreated): 1.8
[1]; 13 days
  Median of the raw expression data, treated: 296.99
[1]; 15 d
  Induction factor = Expression (treated)/Expression (untreated): 1.1
[1]; 15 days
  Median of the raw expression data, treated: 252.25
[1]; 16 d
  Induction factor = Expression (treated)/Expression (untreated): 1.5
[1]; 16 days
  Median of the raw expression data, treated: 340.64
[1]; 17 d
  Induction factor = Expression (treated)/Expression (untreated): 0.8
[1]; 17 days
  Median of the raw expression data, treated: 219.24
[2]; 0.25 d
  Induction factor = Expression (treated)/Expression (untreated): 0.8
[2]; 0.25 days
  Median of the raw expression data, treated: 68.63
[2]; 1 d
  Induction factor = Expression (treated)/Expression (untreated): 0.7
[2]; 1 day
  Median of the raw expression data, treated: 54.66
[2]; 6 d
  Induction factor = Expression (treated)/Expression (untreated): 5.8
[2]; 6 days
  Median of the raw expression data, treated: 716.14
[2]; 8 d
  Induction factor = Expression (treated)/Expression (untreated): 7.4
[2]; 8 days
  Median of the raw expression data, treated: 1121.61
[2]; 11 d
  Induction factor = Expression (treated)/Expression (untreated): 6.1
[2]; 11 days
  Median of the raw expression data, treated: 771.21
[2]; 13 d
  Induction factor = Expression (treated)/Expression (untreated): 3.1
[2]; 13 days
  Median of the raw expression data, treated: 150.42
[2]; 15 d
  Induction factor = Expression (treated)/Expression (untreated): 1.4
[2]; 15 days
  Median of the raw expression data, treated: 162.60
[2]; 16 d
  Induction factor = Expression (treated)/Expression (untreated): 2.7
[2]; 16 days
  Median of the raw expression data, treated: 389.62
[2]; 17 d
  Induction factor = Expression (treated)/Expression (untreated): 0.9
[2]; 17 days
  Median of the raw expression data, treated: 174.42
[3]; 0.25 d
  Induction factor = Expression (treated)/Expression (untreated): 0.8
[3]; 0.25 days
  Median of the raw expression data, treated: 187.60
[3]; 1 d
  Induction factor = Expression (treated)/Expression (untreated): 0.6
[3]; 1 day
  Median of the raw expression data, treated: 153.35
[3]; 6 d
  Induction factor = Expression (treated)/Expression (untreated): 9.8
[3]; 6 days
  Median of the raw expression data, treated: 4773.49
[3]; 8 d
  Induction factor = Expression (treated)/Expression (untreated): 11.5
[3]; 8 days
  Median of the raw expression data, treated: 8173.99
[3]; 11 d
  Induction factor = Expression (treated)/Expression (untreated): 12.1
[3]; 11 days
  Median of the raw expression data, treated: 8587.82
[3]; 13 d
  Induction factor = Expression (treated)/Expression (untreated): 6.0
[3]; 13 days
  Median of the raw expression data, treated: 1723.94
[3]; 15 d
  Induction factor = Expression (treated)/Expression (untreated): 2.7
[3]; 15 days
  Median of the raw expression data, treated: 1689.29
[3]; 16 d
  Induction factor = Expression (treated)/Expression (untreated): 2.5
[3]; 16 days
  Median of the raw expression data, treated: 2069.04
[3]; 17 d
  Induction factor = Expression (treated)/Expression (untreated): 0.6
[3]; 17 days
  Median of the raw expression data, treated: 888.58
[4]; 0.25 d
  Induction factor = Expression (treated)/Expression (untreated): 0.8
[4]; 0.25 days
  Median of the raw expression data, treated: 71.22
[4]; 1 d
  Induction factor = Expression (treated)/Expression (untreated): 0.7
[4]; 1 day
  Median of the raw expression data, treated: 70.44
[4]; 6 d
  Induction factor = Expression (treated)/Expression (untreated): 12.2
[4]; 6 days
  Median of the raw expression data, treated: 5432.88
[4]; 8 d
  Induction factor = Expression (treated)/Expression (untreated): 8.0
[4]; 8 days
  Median of the raw expression data, treated: 7952.61
[4]; 11 d
  Induction factor = Expression (treated)/Expression (untreated): 6.3
[4]; 11 days
  Median of the raw expression data, treated: 12190.31
[4]; 13 d
  Induction factor = Expression (treated)/Expression (untreated): 2.3
[4]; 13 days
  Median of the raw expression data, treated: 4800.62
[4]; 15 d
  Induction factor = Expression (treated)/Expression (untreated): 1.5
[4]; 15 days
  Median of the raw expression data, treated: 4880.14
[4]; 16 d
  Induction factor = Expression (treated)/Expression (untreated): 2.5
[4]; 16 days
  Median of the raw expression data, treated: 1836.52
[4]; 17 d
  Induction factor = Expression (treated)/Expression (untreated): 1.2
[4]; 17 days
  Median of the raw expression data, treated: 1166.53
